In general, pKi refers to −log10 of the Ki, conventionally taken in molar units.

Structures are written as SMILES. pKi: −log10 of the molar value. Read-outs that look alike come from different tables or passages of the source.

Data set [1] has as its target T1, α1b adrenergic receptor (Homo sapiens, UniProt P35368).
T1 construct: expressed in transfected cells; host or cells: CHO cells (membranes)
T1 sequence (P35368 1-520): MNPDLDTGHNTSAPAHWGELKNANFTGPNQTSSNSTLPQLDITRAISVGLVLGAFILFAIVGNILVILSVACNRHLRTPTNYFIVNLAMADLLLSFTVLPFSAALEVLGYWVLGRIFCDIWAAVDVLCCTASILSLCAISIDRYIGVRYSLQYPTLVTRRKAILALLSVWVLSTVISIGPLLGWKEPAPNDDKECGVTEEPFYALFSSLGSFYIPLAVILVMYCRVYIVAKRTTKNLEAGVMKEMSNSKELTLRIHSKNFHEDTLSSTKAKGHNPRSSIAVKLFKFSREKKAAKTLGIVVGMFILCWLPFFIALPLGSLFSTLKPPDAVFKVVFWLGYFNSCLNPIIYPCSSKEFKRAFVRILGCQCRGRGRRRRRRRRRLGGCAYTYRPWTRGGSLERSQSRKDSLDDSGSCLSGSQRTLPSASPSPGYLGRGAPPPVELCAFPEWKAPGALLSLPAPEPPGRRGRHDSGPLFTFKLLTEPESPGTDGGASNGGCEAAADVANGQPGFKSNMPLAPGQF
Briefly: α1b adrenergic receptor binding, [3H]prazocine. The procedure: Affinity for the α1b adrenergic receptor was tested using membranes prepared from Chinese hamster ovary (CHO) cells heterologously expressing the cloned human receptor that were incubated with [^3H]prazocine (0.15 nM) in the presence of various concentrations of test compounds for 1 hour at 22° C. Nonspecific binding was determined in the presence of 10 μM phentolamine. Bound radioactivity was determined by scintillation spectroscopy.

Data set [2] deals with T2, α2c adrenergic receptor (Homo sapiens, UniProt P18825).
T2 construct: expressed in transfected cells; host or cells: CHO cells
T2 sequence (P18825 1-462): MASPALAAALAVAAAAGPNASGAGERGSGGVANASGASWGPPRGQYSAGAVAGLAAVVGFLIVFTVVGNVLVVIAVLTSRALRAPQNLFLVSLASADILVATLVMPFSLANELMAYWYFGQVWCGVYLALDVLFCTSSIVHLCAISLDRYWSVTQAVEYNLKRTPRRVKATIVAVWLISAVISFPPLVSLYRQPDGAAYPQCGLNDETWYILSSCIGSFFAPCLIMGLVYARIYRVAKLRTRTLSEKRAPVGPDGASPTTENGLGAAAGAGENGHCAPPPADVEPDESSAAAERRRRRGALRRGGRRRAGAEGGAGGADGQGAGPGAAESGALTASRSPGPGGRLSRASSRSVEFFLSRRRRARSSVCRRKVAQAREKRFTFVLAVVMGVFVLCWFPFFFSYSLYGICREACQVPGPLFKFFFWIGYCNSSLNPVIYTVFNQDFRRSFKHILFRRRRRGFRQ
Briefly: α2c adrenergic receptor binding, [3H]RX821002. The following applies: for inhibition at 10 µM: read-out: α2c adrenergic receptor, % inhib. at 10 μM. As for the experimental part: Nonspecific binding was determined in the presence of 100 μM (−)-epinephrine. Bound radioactivity was determined by scintillation spectroscopy.

For data set [3], the target named is hERG (Homo sapiens, UniProt Q12809). Briefly: hERG channel inhibition. The class given is biochemical. Particulars: cloned hERG channel α subunit (expression host not stated), 10 μM test compound, read-out: percent inhibition of hERG channels. For orientation: hERG is a cardiac potassium channel; its block is linked to QT prolongation.
Chain of hERG (Q12809 whole entry): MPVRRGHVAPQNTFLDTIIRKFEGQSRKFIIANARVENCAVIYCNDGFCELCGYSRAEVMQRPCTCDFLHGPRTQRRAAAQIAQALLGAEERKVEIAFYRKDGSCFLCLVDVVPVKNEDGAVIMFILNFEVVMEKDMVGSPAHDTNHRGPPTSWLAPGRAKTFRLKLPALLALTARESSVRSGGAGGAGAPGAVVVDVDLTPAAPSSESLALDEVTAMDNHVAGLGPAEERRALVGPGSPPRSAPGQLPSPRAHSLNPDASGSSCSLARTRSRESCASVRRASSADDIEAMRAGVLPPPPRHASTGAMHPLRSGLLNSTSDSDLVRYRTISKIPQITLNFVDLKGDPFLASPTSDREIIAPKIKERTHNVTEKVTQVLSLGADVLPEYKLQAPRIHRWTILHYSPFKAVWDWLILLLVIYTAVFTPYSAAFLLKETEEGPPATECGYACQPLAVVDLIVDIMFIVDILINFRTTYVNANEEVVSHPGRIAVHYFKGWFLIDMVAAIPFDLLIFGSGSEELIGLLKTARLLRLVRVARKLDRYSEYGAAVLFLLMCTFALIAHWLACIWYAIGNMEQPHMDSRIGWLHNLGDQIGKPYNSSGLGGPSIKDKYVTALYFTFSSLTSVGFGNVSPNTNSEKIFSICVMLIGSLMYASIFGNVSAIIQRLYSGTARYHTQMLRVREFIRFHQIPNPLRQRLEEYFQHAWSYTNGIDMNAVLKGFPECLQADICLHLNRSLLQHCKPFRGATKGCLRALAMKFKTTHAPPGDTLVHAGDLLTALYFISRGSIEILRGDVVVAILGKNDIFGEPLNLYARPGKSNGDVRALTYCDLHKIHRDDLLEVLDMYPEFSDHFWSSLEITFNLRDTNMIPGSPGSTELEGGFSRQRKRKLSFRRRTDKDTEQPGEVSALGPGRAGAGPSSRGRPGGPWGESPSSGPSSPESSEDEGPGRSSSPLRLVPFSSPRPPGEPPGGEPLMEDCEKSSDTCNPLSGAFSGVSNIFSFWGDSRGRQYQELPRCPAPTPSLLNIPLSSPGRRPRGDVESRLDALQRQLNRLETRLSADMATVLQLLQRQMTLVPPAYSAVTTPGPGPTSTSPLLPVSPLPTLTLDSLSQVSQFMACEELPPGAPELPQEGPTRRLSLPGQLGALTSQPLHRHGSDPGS
Data set [4] deals with T3, human muscarinic receptor M2 (Homo sapiens, UniProt P08172).
T3 construct: expressed in transfected cells; host or cells: CHO cells (membranes)
T3 sequence (P08172 1-466): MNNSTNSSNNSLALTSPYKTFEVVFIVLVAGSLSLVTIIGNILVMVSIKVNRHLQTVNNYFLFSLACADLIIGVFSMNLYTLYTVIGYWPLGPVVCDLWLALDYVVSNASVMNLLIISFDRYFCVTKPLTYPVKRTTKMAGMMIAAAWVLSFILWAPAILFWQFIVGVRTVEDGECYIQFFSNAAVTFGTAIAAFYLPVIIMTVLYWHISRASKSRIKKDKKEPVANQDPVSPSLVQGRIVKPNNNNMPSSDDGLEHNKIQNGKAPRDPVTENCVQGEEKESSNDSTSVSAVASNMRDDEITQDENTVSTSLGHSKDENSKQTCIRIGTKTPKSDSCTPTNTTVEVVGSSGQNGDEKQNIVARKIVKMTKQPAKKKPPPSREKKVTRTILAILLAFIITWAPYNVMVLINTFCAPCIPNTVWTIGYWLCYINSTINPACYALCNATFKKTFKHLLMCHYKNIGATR
Briefly: Muscarinic M2 receptor binding, [3H]AF-DX384. Particulars: read-out: Affinity for Muscarinic Receptors, M2, Ki. As for the experimental part: Protocol. […] Bound radioactivity was determined by scintillation spectroscopy. Non-specific binding was defined as the amount of bound radioligand in the presence of 1.0 μM atropine. Radioligand for the M1 receptor was [^3H]pirenzepine (2 nM). Radioligand for the M2 receptor was [^3H]AF-DX384 (2 nM). Radioligand for the M3, M4, and M5 receptors was [^3H]4-DAMP.

The test system of data set [5] is FCA-induced mechanical hyperalgesia in rats. Briefly: Rat FCA-induced mechanical hyperalgesia assay (paw pressure threshold). Format: in vivo. Particulars: for antihyperalgesia (% AH): 1 hour after treatment; for antihyperalgesia (% AH) / antihyperalgesic activity (% AH): 24 h FCA-treated rats; for antihyperalgesic activity (% AH): 60 mg/kg IP; for antihyperalgesic activity (% AH) / ED50 for reversal of mechanical hyperalgesia: 1 h posttreatment; for ED50 for reversal of mechanical hyperalgesia: response at 60 mg/kg IP taken as maximal response (100%). The procedure: Protocol. […] Dosage amounts are based on the amount of free base. For the assay, the methods of DeHaven-Hudkins et al., 1999 were used to determine mechanical hyperalgesia in rats 24 hours after intraplantar administration of 150 μL Freund's Complete Adjuvant (FCA). To determine paw pressure thresholds, the rats were lightly restrained in a gauze wrap and pressure was applied to the dorsal surface of the inflamed and uninflamed paw with a conical piston using a pressure analgesia apparatus (Stoelting Instruments, Wood Dale, Ill.). The paw pressure threshold was defined as the amount of force (in grams) required to elicit an escape response using a cutoff value of 250 grams.
Paw pressure thresholds were measured 1 h posttreatment.
Protocol. […] For comparison, sterile water vehicle was tested as a negative control. The methods of DeHaven-Hudkins et al., 1999 were used to determine mechanical hyperalgesia in rats 24 hours after intraplantar administration of 150 μL Freund's Complete Adjuvant (FCA). To determine paw pressure thresholds, the rats were lightly restrained in a gauze wrap and pressure was applied to the dorsal surface of the inflamed and uninflamed paw with a conical piston using a pressure analgesia apparatus (Stoelting Instruments, Wood Dale, Ill.). The paw pressure threshold was defined as the amount of force (in grams) required to elicit an escape response using a cutoff value of 250 grams.
Paw pressure thresholds were determined 1, 2, or 4 hours after administration using the methods disclosed in Examples 5 and 18.
Accordingly, rats were treated with sterile water vehicle, 30, or 60 mg/kg IP twenty-four hours after administration of FCA.

The mark [6] stands for this setting: read-out: Affinity at α1b adrenergic receptor, Ki.

Regarding `CNCC/C=C1\c2ccccc2C[C@H](O)c2ccccc21` (stereo in doubt) [(+)-E-10-OH-NT], the figures for the pKi in data set [1] (setting [6]) and in data set [4] were 6.16 and 5.38, respectively. Moreover, the inhibition at 10 µM in data set [2] was 35%; in data set [3], 8.8%. Further, the “antihyperalgesia (% AH)” value in data set [5] (30 mg/kg IP) was “not antihyperalgesic”. Moreover, the “antihyperalgesic activity, time course” value in data set [5] (30 mg/kg IP, 1, 2, or 4 hours after administration) is given as “not antihyperalgesic at any time point tested”. In addition, the “antihyperalgesic activity (% AH)” value in data set [5] is 40±13 % AH.

As for `CNCC/C=C1\c2ccccc2C[C@@H](O)c2ccccc21` (stereo in doubt) [(−)-E-10-OH-NT], the pKi in data set [1] (setting [6]) and in data set [4] was 5.59 throughout. The inhibition at 10 µM in data set [2] was found to be 30%; in data set [3] it was 6%. Further, in data set [5] (30 mg/kg IP), the “antihyperalgesia (% AH)” value amounted to 55±7 % AH. Moreover, in data set [5] (30 mg/kg, i.p.), the “antihyperalgesic activity (Example 5)” value is “robust antihyperalgesic activity”. For the same compound, the “antihyperalgesic activity (% AH)” value in data set [5] is 270±53 % AH. For the same compound, the “antihyperalgesic activity, orally-administered” value in data set [5] (oral administration) was “significant activity”. Moreover, in data set [5], the “ED50 for reversal of mechanical hyperalgesia” value turned out to be 36 mg/kg IP.

`CN(C)CCC=C1c2ccccc2CCc2ccccc21` [AT, amitriptyline, reference compound]: the pKi in data set [1] (setting [6]) is 8.23. Besides, in data set [2] (read-out: Affinity at α2c adrenergic receptor, Ki), the pKi is 7.89. Moreover, in data set [5], the “antihyperalgesic activity (% AH)” value was 259±39 % AH and the “ED50 for reversal of mechanical hyperalgesia” value came to 38 mg/kg IP.

Consider `CNCCC=C1c2ccccc2CCc2ccccc21` [NT, nortriptyline, reference compound], for which the pKi is 7.68 in data set [1] and 6.66 in data set [4]. For the same compound, in data set [3], the inhibition at 10 µM came to 55.1%.
